Data from patent publication US12338205B2, “Crystalline form of 3-((L-valyl) amino)-1-propanesulfonic acid” (RISEN (SUZHOU) PHARMA TECH CO., LTD., priority 2018, dated 2025).

How the values were obtained:
[1] = Pharmacokinetics comparative experiment, plasma concentration by LC/MS2 after capsule intragastric administration; assay type: in vivo; conditions: SD rats, 133 mg/kg, solid capsule intragastric administration
Text: By means of a pharmacokinetics comparative experiment, the […] feature of the crystalline form I provided herein after administration is compared with that of the amorphous solid of Example 1 as a reference sample.
SD rats (all male, weight of 260-280 g) were randomizely grouped, each group of 3 animals. The medication group received the crystalline form compound (No. S08S02S15a) of the Example 2, the crystalline form compound (No. S08S04S22a) of the Example 7, and the crystalline form compound (No. S08S19S24a) of the Example 8, respectively, and the control group received the reference sample (the amorphous solid of Example 1). The animals were fasted for 12 hours before administration, and the dosage of administration was 133 mg/kg. The corresponding medications were administered by intragastric administration using a solid capsule administration system (Size 9el Rat Box+Foam+Funnel+Syringe). Rat plasma samples were collected before administration, and 0.08, 0.16, 0.33, 0.5, 1, 1.5, 2, 3, 4, 6, and 8 h after administration, respectively. After heparin tube anticoagulation, centrifugation was performed at 5000 rpm for 10 min at a temperature of 4° C. A plasma supernatant sample was taken and subjected to protein precipitation using methanol, and then, the medication concentration in the plasma was monitored by LC/MS2.

[2] = Thermogravimetric analysis (TGA); assay type: physicochemical; conditions: for slow weight loss (TGA): before about 120° C., showing that it is an anhydrate; for decomposition temperature (TGA): nitrogen, ramp 10° C./min
Procedure: The thermogravimetric analyzer (TGA) involved herein is Q500TGA from TA Instruments; detection conditions: a platinum crucible, a protective atmosphere of nitrogen, a gas flow rate of 40 mL/min; and the following detection method: a Hi-Res sensitivity of 3.0, ramp 10.00° C./min, res 5.0 to 120.00° C., and ramp 10.00° C./min to 350° C.

[3] = compared with amorphous solid of Example 1

exposure AUC [1, 3]: effectively improve
half-life period T1/2 [1, 3]: effectively improve
maximum blood concentration Cmax [1, 3]: effectively improve
medication dissolution ([1]; compared with reference sample (amorphous solid of Example 1), FIGS. 21-24): improving
slow weight loss (TGA) ([2]; listed as Example 2): about 0.5 wt %
slow weight loss (TGA) ([2]; listed as Example 6): about 0.5 wt %
slow weight loss (TGA) ([2]; listed as Example 7): about 1.4 wt %
slow weight loss (TGA) ([2]; listed as Example 8): about 0.2 wt %
slow weight loss (TGA) ([2]; listed as Example 9): about 1.2 wt %
slow weight loss (TGA) ([2]; listed as Example 14): about 0.5 wt %
slow weight loss (TGA) ([2]; listed as Example 24): about 0.6 wt %
decomposition temperature (TGA) ([2]; listed as Example 2): about 307 °C
decomposition temperature (TGA) ([2]; listed as Example 6): about 300 °C
decomposition temperature (TGA) ([2]; listed as Example 7): about 302 °C
decomposition temperature (TGA) ([2]; listed as Example 8): about 314 °C
decomposition temperature (TGA) ([2]; listed as Example 9): about 303 °C
decomposition temperature (TGA) ([2]; listed as Example 14): about 310 °C
decomposition temperature (TGA) ([2]; listed as Example 24): about 317 °C
Structure (SMILES): CC(C)[C@H](N)C(=O)NCCCS(=O)(=O)O [Crystalline Form I, 3-((L-valyl)amino)-1-propanesulfonic acid]
